Literature values, collected in patent US20120115783A1, “PEPTIDOMIMETIC MACROCYCLES” (Alleron therapeutics, Inc, priority 2008, published 2012).

System: HCT116 tumour xenografts

Structure (SMILES): CN1C(=O)[C@]2(Cc3cn([C@]45C[C@@]67SS[C@@](CO)(C(=O)N6[C@H]4Nc4ccccc45)N(C)C7=O)c4ccccc34)SS[C@@]1(CO)C(=O)N2C [chetomin]
- growth of HCT116 tumour xenografts (HCT116 tumour xenografts): inhibited their growth
- hypoxia-inducible transcription within HCT116 tumour xenografts (within HCT116 tumour xenografts, pharmacological inhibition of HIF-1α): inhibited hypoxia-inducible transcription
